Reference: paper PMC2913692 (The European journal of neuroscience, 2010)
Read-outs that look alike come from different tables or passages of the source.

Key:
[1] = system: N-methyl-D-aspartate receptor (NMDAR), NR1 subunit coagonist site; experiment: whole-cell voltage clamp; format: cell-based, Ambystoma tigrinum
[2] = system: N-methyl-D-aspartate receptor (NMDAR), NR1 subunit coagonist site; experiment: whole-cell voltage clamp of retinal ganglion cells; set-up: species or system Ambystoma tigrinum
[3] = system: N-methyl-D-aspartate receptor (NMDAR), NR1 subunit coagonist site

With O=C(O)c1cc(O)c2ccc(Cl)cc2n1 [7CKA, 7-chlorokynurenic acid] the “% of control at 25 μM” value [1] was 5.3 ± 1.0.
N[C@H](CO)C(=O)O [D-serine] was tested, and the EC50 [2] was 3.48 ± 1.05 µM.
Work on NCC(=O)O [glycine] yielded an EC50 [3] of 118 ± 48.1 µM.
